Test results: ChEMBL document CHEMBL1201862, “PubChem BioAssay data set” (2004)
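Briefly, cells in 96-well plates were exposed to five compound concentrations for 48 h, and endpoints were estimated by linear interpolation. At the GI50, growth is halved.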 Active and inactive are the calls of the source. Rule as the data show it: active = GI50 up to about 1.1 µM and inactive = higher.

Tests used:
Assay in all cases: NCI anticancer screen, dose series, 48 h
KM-20L2 = tested on: KM-20L2
LXFL 529 = tested on: LXFL 529
SNB-78 = tested on: SNB-78
RXF 631 = tested on: RXF 631
M19-MEL = tested on: M19-MEL
XF498 = tested on: XF498
DMS-114 = tested on: DMS-114
HOP-18 = tested on: HOP-18

O=C(c1ccccc1)c1c(C(=O)c2ccccc2)c(-c2ccccc2)c2c(-c3ccccc3)sc(-c3ccccc3)c2c1-c1ccccc1
GI50 (KM-20L2): > 100 µM (inactive)
GI50 (LXFL 529): > 100 µM (inactive)
GI50 (SNB-78): > 100 µM (inactive)
GI50 (RXF 631): > 100 µM (inactive)
GI50 (M19-MEL): > 100 µM (inactive)
GI50 (XF498): > 100 µM (inactive)
GI50 (DMS-114): > 100 µM (inactive)

Cc1c(N)nc([C@H](CC(N)=O)NC[C@H](N)C(N)=O)nc1C(=O)N[C@H](C(=O)N[C@H](C)[C@@H](O)[C@H](C)C(=O)N[C@H](C(=O)NCCc1nc(-c2nc(C(=O)NCCC[S+](C)C)cs2)cs1)[C@@H](C)O)C(OC1OC(CO)C(O)C(O)C1OC1OC(CO)C(O)C(OC(N)=O)C1O)c1c[nH]cn1 (some centres not stated)
GI50 (KM-20L2): 19.9 µM (inactive)
GI50 (LXFL 529): 16.9 µM (inactive)
GI50 (SNB-78): 20.8 µM (inactive)
GI50 (RXF 631): 0.608 µM (active)
GI50 (M19-MEL): 8.28 µM (inactive)
GI50 (XF498): 0.776 µM (active)
GI50 (DMS-114): 0.438 µM (active)
GI50 (HOP-18): 4.27 µM (inactive)

N=C(N)NS(=O)(=O)c1ccc(NC(=O)c2cccc3c(N)c4ccccc4nc23)cc1
GI50 (KM-20L2): 68.2 µM (inactive)
GI50 (LXFL 529): 60.1 µM (inactive)
GI50 (SNB-78): > 100 µM (inactive)
GI50 (RXF 631): > 100 µM (inactive)
GI50 (M19-MEL): > 100 µM (inactive)
GI50 (XF498): > 100 µM (inactive)
GI50 (DMS-114): 61.2 µM (inactive)

O=C1NC(=O)/C(=N\c2cccc3c(=O)[nH][nH]c(=O)c23)C(c2nc3ccccc3s2)C1=O (configuration not stated)
GI50 (KM-20L2): > 100 µM (inactive)
GI50 (LXFL 529): > 100 µM (inactive)
GI50 (SNB-78): > 100 µM (inactive)
GI50 (RXF 631): > 100 µM (inactive)
GI50 (M19-MEL): > 100 µM (inactive)
GI50 (XF498): 32.1 µM (inactive)
GI50 (DMS-114): > 100 µM (inactive)
GI50 (HOP-18): > 100 µM (inactive)

CC1=C(C(=O)Nc2ccccc2C)C(c2ccc(Cl)cc2)C(C(=O)Nc2ccccc2C)=C(C)N1
GI50 (LXFL 529): > 100 µM (inactive)
GI50 (SNB-78): > 100 µM (inactive)
GI50 (RXF 631): > 100 µM (inactive)
GI50 (M19-MEL): > 100 µM (inactive)
GI50 (XF498): 81.3 µM (inactive)
GI50 (DMS-114): > 100 µM (inactive)
GI50 (HOP-18): > 100 µM (inactive)

COc1ccc2c(c1)[n+]([O-])c(-c1ccc(Cl)c(Cl)c1)c(N)[n+]2[O-]
GI50 (KM-20L2): 32.3 µM (inactive)
GI50 (LXFL 529): 35.6 µM (inactive)
GI50 (SNB-78): 53.6 µM (inactive)
GI50 (RXF 631): 21.3 µM (inactive)
GI50 (M19-MEL): 28.8 µM (inactive)
GI50 (DMS-114): 16.3 µM (inactive)
GI50 (HOP-18): 24.3 µM (inactive)

C=C(C)C1CC=C(C)CC1 (configuration not stated)
GI50 (KM-20L2): 904 µM (inactive)
GI50 (LXFL 529): 855 µM (inactive)
GI50 (SNB-78): 986 µM (inactive)
GI50 (RXF 631): 908 µM (inactive)
GI50 (M19-MEL): 879 µM (inactive)
GI50 (XF498): 993 µM (inactive)
GI50 (DMS-114): 891 µM (inactive)
GI50 (HOP-18): > 100 µM (inactive)

CCN(CC)CCC1(C2CCCCC2)CCC(=O)NC1=O (configuration not stated)
GI50 (KM-20L2): > 100 µM (inactive)
GI50 (LXFL 529): > 100 µM (inactive)
GI50 (SNB-78): > 100 µM (inactive)
GI50 (RXF 631): > 100 µM (inactive)
GI50 (M19-MEL): > 100 µM (inactive)
GI50 (XF498): > 100 µM (inactive)
GI50 (DMS-114): > 100 µM (inactive)

O=c1[nH]cc(COCCO)c(=O)[nH]1
GI50 (KM-20L2): > 100 µM (inactive)
GI50 (LXFL 529): > 100 µM (inactive)
GI50 (SNB-78): > 100 µM (inactive)
GI50 (RXF 631): > 100 µM (inactive)
GI50 (M19-MEL): > 100 µM (inactive)
GI50 (XF498): > 100 µM (inactive)
GI50 (DMS-114): > 100 µM (inactive)
GI50 (HOP-18): > 100 µM (inactive)
